Here are results for 1 compound from US6908920B2, “Pyrimidine derivatives” (AstraZeneca AB, priority 2000, dated 2005).

The experiment addresses T1, CDK2/Cyclin E (Homo sapiens, UniProt P24941).
T1 construct: made in house; host or cells: Sf21 (Spodoptera frugiperda) insect cells, baculovirus co-infection, for CDK2/cyclin E. E. coli BL21 (DE3) pLysS for the GST-Rb substrate
Put plainly: in vitro kinase assay, Scintillation Proximity Assay, incorporation of [γ-33-P]-ATP into GST-Rb. It is filed as biochemical. To be noted: in-vitro SPA kinase assay, GST-Rb substrate, read-out: CDK2 inhibitory activity IC50. How it is done:
The compounds were tested in an in vitro kinase assay in 96 well format using Scintillation Proximity Assay (SPA—obtained from Amersham) for measuring incorporation of [γ-33-P]-Adenosine Triphosphate into a test substrate (GST-Retinoblastoma protein; GST-Rb). In each well was placed the compound to be tested (diluted in DMSO and water to correct concentrations) and in control wells either roscovitine as an inhibitor control or DMSO as a positive control. […]
The plates were sealed with Topseal-S plate sealers, left for two hours then spun at 2500 rpm, 1124×g., for 5 minutes. The plates were read on a Topcount for 30 seconds per well. […]
E. coli paste was resuspended in 10 ml/g of NETN buffer (50 mM Tris pH 7.5, 120 mM NaCl, 1 mM EDTA, 0.5% v/v NP-40, 1 mM PMSF, 1 ug/mnl leupeptin, 1 ug/ml aprotinin and 1 ug/ml pepstatin) and sonicated for 2×45 seconds per 100 ml homogenate. […] The final product was analysed by Sodium Dodeca Sulfate (SDS) PAGE (Polyacrylamide gel) using 8-16% Tris-Glycine gels (Novex, San Diego, USA).
The open reading frames of CDK2 and Cyclin E were isolated by reverse transcriptase-PCR using HeLa cell and activated T cell mRNA as a template and cloned into the insect expression vector pVL1393 (obtained from Invitrogen 1995 catalogue number: V1392-20). […]
(In general: Scintillation proximity formats need no separation of bound from free tracer.)

Each structure is given as a SMILES string.

As to `CC(C)NCCCNS(=O)(=O)c1ccc(Nc2ncc(C#N)c(N3CCOCC3)n2)cc1` [Example 1, 5-Cyano-4-morpholino-2-{4-[N-(3-isopropylaminopropyl)sulphamoyl]anilino}pyrimidine], the IC50 (usually the concentration at which inhibition is half-maximal) came out at 0.148 µM.
